Marks after values point to notes of the source that are not given here.
Experiments:
[1] = tested on: CC(=O)[C@@H](O)[C@H](O)COP(=O)(O)O; test: purified protein, by the assay type; conditions: pH 7.5; 25.0 °C
P. falciparum = conditions: cited from earlier work
wild-type MtDXR [2] = conditions: pH 7.6; cited from earlier work
M. tuberculosis = conditions: cited from earlier work
wild-type MtDXR [3] = molecular target: wild-type MtDXR (Mycobacterium tuberculosis, UniProt P9WNS1); format: binding
DXR = conditions: read-out: Ki values; cited from earlier work
wild-type MtDXR [4] = conditions: ref Liu and Murkin 17; cited from earlier work

Chain of wild-type MtDXR (Mycobacterium tuberculosis, UniProt P9WNS1) (P9WNS1 1-389): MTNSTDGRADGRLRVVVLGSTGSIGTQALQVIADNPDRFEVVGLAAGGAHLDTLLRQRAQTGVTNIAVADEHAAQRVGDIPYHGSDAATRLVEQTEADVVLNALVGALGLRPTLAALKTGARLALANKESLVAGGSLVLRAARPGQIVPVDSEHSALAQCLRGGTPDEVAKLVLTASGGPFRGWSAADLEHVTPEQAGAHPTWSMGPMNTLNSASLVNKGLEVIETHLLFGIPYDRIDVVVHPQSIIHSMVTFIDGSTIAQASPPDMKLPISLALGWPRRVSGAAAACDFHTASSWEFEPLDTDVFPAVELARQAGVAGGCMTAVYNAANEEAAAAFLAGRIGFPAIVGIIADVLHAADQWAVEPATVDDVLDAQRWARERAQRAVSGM

**Q.** With (Mycobacterium tuberculosis H37Rv) as the compound, how does the Km [1] read?
**A.** 137 ± 12 µM

**Q.** And the kcat [1]?
**A.** 4.2 ± 0.2 s⁻¹

**Q.** What about the kcat/Km [1] of the same compound?
**A.** 31000 ± 2000 M⁻¹ s⁻¹

**Q.** Which results are given for O=CN(O)CCCP(=O)(O)O [fosmidomycin]?
**A.** treatment of malaria caused by P. falciparum (P. falciparum): effective; Kd (wild-type MtDXR [2]): 290 nM; ΔG° (wild-type MtDXR [2]): –8.34 ^e kcal/mol; ΔH° (wild-type MtDXR [2]): –6.0 ^e kcal/mol; –TΔS° (wild-type MtDXR [2]): –2.3 ^e kcal/mol; activity against M. tuberculosis (M. tuberculosis): poorly active; enthalpy share of total binding energy (wild-type MtDXR [3]): 50%; ΔG° (wild-type MtDXR [3]; pH 7.5): –9.82 ± 0.08 kcal/mol; ΔH° (wild-type MtDXR [3]; pH 7.5): –4.8 ± 0.7 kcal/mol; –TΔS° (wild-type MtDXR [3]; pH 7.5): –5.0 ± 0.7 kcal/mol; Ki (DXR): 10 to 100 nM

**Q.** With CC(=O)[C@@H](O)[C@H](O)COP(=O)(O)O [DXP, 1-deoxy-D-xylulose 5-phosphate] as the compound, how does the Km (wild-type MtDXR [4]) read?
**A.** 115 ± 7 µM
